Test system: 653999-131-R-J2-PDC complex spheroids, growth inhibition
Test: Anticancer human tumor 653999-131-R-J2-PDC patient-derived lung adenocarcinoma cell line growth inhibition [RAS]
Conditions: for IC50: curve of first compound; for viability, T/C: stronger effect = lower value
Outline: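 Agents were tested in combination matrices in half-log decrements from a top concentration at or near clinical Cmax (10 microM if undetermined). Targets were multi-cell spheroids of tumour lines plus HUVEC and MSC stromal cells.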

[1] = second compound 0.0316 µM, first compound 0.0316 µM
[2] = second compound 0.0316 µM, first compound 0.1 µM
[3] = second compound 0.0316 µM, first compound 0.316 µM
[4] = second compound 0.0316 µM, first compound 1 µM
[5] = second compound 0.0316 µM, first compound 3.16 µM
[6] = second compound 0.0316 µM, first compound 10 µM
[7] = second compound 0.1 µM, first compound 0.0316 µM
[8] = second compound 0.1 µM, first compound 0.1 µM
[9] = second compound 0.1 µM, first compound 0.316 µM
[10] = second compound 0.1 µM, first compound 1 µM
[11] = second compound 0.1 µM, first compound 3.16 µM
[12] = second compound 0.1 µM, first compound 10 µM
[13] = second compound 0.316 µM, first compound 0.0316 µM
[14] = second compound 0.316 µM, first compound 0.1 µM
[15] = second compound 0.316 µM, first compound 0.316 µM
[16] = second compound 0.316 µM, first compound 1 µM
[17] = second compound 0.316 µM, first compound 3.16 µM
[18] = second compound 0.316 µM, first compound 10 µM
[19] = second compound 1 µM, first compound 0.0316 µM
[20] = second compound 1 µM, first compound 0.1 µM
[21] = second compound 1 µM, first compound 0.316 µM
[22] = second compound 1 µM, first compound 1 µM
[23] = second compound 1 µM, first compound 3.16 µM
[24] = second compound 1 µM, first compound 10 µM
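Note: spheroids exposed to the agents for seven days before the readout.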

Compound: Cc1nc(N2CCC3(CC2)COC(C)C3N)c(CO)nc1Sc1ccnc(N)c1Cl (stereo unspecified) + C=CC(=O)N1CCN(c2nc(OCC3CCCN3C)nc3c(F)c(-c4nc(N)cc(C)c4C(F)(F)F)c(Cl)cc23)C(C)C1
- IC50 (second compound 0.00316 µM): > 10 µM
- IC50 (second compound 0.01 µM): > 10 µM
- IC50 (second compound 0.0316 µM): > 10 µM
- IC50 (second compound 0.1 µM): > 10 µM
- IC50 (second compound 0.316 µM): > 10 µM
- IC50 (second compound 1 µM): > 10 µM
- viability, T/C (second compound 0.00316 µM, first compound 0.0316 µM): 81.4%
- viability, T/C (second compound 0.00316 µM, first compound 0.1 µM): 76.7%
- viability, T/C (second compound 0.00316 µM, first compound 0.316 µM): 77.9%
- viability, T/C (second compound 0.00316 µM, first compound 1 µM): 74.6%
- viability, T/C (second compound 0.00316 µM, first compound 3.16 µM): 83.3%
- viability, T/C (second compound 0.00316 µM, first compound 10 µM): 78.2%
- viability, T/C (second compound 0.01 µM, first compound 0.0316 µM): 90.5%
- viability, T/C (second compound 0.01 µM, first compound 0.1 µM): 86.5%
- viability, T/C (second compound 0.01 µM, first compound 0.316 µM): 78.3%
- viability, T/C (second compound 0.01 µM, first compound 1 µM): 80.6%
- viability, T/C (second compound 0.01 µM, first compound 3.16 µM): 86.9%
- viability, T/C (second compound 0.01 µM, first compound 10 µM): 63.9%
- viability, T/C [1]: 87.2%
- viability, T/C [2]: 82.6%
- viability, T/C [3]: 93.1%
- viability, T/C [4]: 84.7%
- viability, T/C [5]: 78.1%
- viability, T/C [6]: 63.9%
- viability, T/C [7]: 103%
- viability, T/C [8]: 77.6%
- viability, T/C [9]: 90.2%
- viability, T/C [10]: 73.5%
- viability, T/C [11]: 77%
- viability, T/C [12]: 70%
- viability, T/C [13]: 92%
- viability, T/C [14]: 82%
- viability, T/C [15]: 82.9%
- viability, T/C [16]: 78.4%
- viability, T/C [17]: 80.7%
- viability, T/C [18]: 73.9%
- viability, T/C [19]: 105%
- viability, T/C [20]: 66.7%
- viability, T/C [21]: 74.8%
- viability, T/C [22]: 78.3%
- viability, T/C [23]: 67.3%
- viability, T/C [24]: 82.1%

Compound: CC(=O)OC12COC1CC(O)C1(C)C(=O)C(O)C3=C(C)C(OC(=O)C(O)C(NC(=O)OC(C)(C)C)c4ccccc4)CC(O)(C(OC(=O)c4ccccc4)C21)C3(C)C (stereo unspecified) + C#Cc1c(F)ccc2cc(O)cc(-c3ncc4c(N5CC6CCC(C5)N6)nc(OCC56CCCN5CC(F)C6)nc4c3F)c12
- IC50 (second compound 0.0316 µM): 0.0316 µM
- IC50 (second compound 0.1 µM): < 0.0316 µM
- IC50 (second compound 0.316 µM): < 0.0316 µM
- IC50 (second compound 1 µM): < 0.0316 µM
- IC50 (second compound 3.16 µM): < 0.0316 µM
- IC50 (second compound 10 µM): < 0.0316 µM
- viability, T/C [1]: 51%
- viability, T/C [2]: 58%
- viability, T/C [3]: 47.7%
- viability, T/C [4]: 65.3%
- viability, T/C [5]: 71.5%
- viability, T/C [6]: 59.4%
- viability, T/C [7]: 50%
- viability, T/C [8]: 47%
- viability, T/C [9]: 50.4%
- viability, T/C [10]: 55.7%
- viability, T/C [11]: 57%
- viability, T/C [12]: 55.5%
- viability, T/C [13]: 43.4%
- viability, T/C [14]: 41.3%
- viability, T/C [15]: 42.5%
- viability, T/C [16]: 50.1%
- viability, T/C [17]: 47.4%
- viability, T/C [18]: 42.6%
- viability, T/C [19]: 25.7%
- viability, T/C [20]: 31.1%
- viability, T/C [21]: 32.2%
- viability, T/C [22]: 31.9%
- viability, T/C [23]: 28.8%
- viability, T/C [24]: 31%
- viability, T/C (second compound 3.16 µM, first compound 0.0316 µM): 19.6%
- viability, T/C (second compound 3.16 µM, first compound 0.1 µM): 19.2%
- viability, T/C (second compound 3.16 µM, first compound 0.316 µM): 15.8%
- viability, T/C (second compound 3.16 µM, first compound 1 µM): 16.2%
- viability, T/C (second compound 3.16 µM, first compound 3.16 µM): 24.1%
- viability, T/C (second compound 3.16 µM, first compound 10 µM): 18.5%
- viability, T/C (second compound 10 µM, first compound 0.0316 µM): 12.6%
- viability, T/C (second compound 10 µM, first compound 0.1 µM): 11.7%
- viability, T/C (second compound 10 µM, first compound 0.316 µM): 12.4%
- viability, T/C (second compound 10 µM, first compound 1 µM): 13.5%
- viability, T/C (second compound 10 µM, first compound 3.16 µM): 17.4%
- viability, T/C (second compound 10 µM, first compound 10 µM): 13.3%

Compound: CC(C)NCC(C(=O)N1CCN(c2ncnc3c2C(C)CC3O)CC1)c1ccc(Cl)cc1 (stereo unspecified) + CCn1c(-c2cccnc2C(C)OC)c2c3cc(ccc31)N1CCOC(CC(NC(=O)C(C(C)C)N(C)C(=O)C3(F)CCN(C(=O)C#CC(C)(C)N(C)C)CC3)C(=O)N3CCCC(N3)C(=O)OCC(C)(C)C2)C1
- IC50 (second compound 0.000949 µM): 0.953 µM
- IC50 (second compound 0.003 µM): 1.24 µM
- IC50 (second compound 0.00949 µM): 1.53 µM
- IC50 (second compound 0.03 µM): 1.53 µM
- IC50 (second compound 0.0949 µM): 1.16 µM
- IC50 (second compound 0.3 µM): 0.996 µM
- viability, T/C (second compound 0.000949 µM, first compound 0.0316 µM): 91%
- viability, T/C (second compound 0.000949 µM, first compound 0.1 µM): 110%
- viability, T/C (second compound 0.000949 µM, first compound 0.316 µM): 72.1%
- viability, T/C (second compound 0.000949 µM, first compound 1 µM): 53.1%
- viability, T/C (second compound 0.000949 µM, first compound 3.16 µM): 41.6%
- viability, T/C (second compound 0.000949 µM, first compound 10 µM): 34.6%
- viability, T/C (second compound 0.003 µM, first compound 0.0316 µM): 86.8%
- viability, T/C (second compound 0.003 µM, first compound 0.1 µM): 99.8%
- viability, T/C (second compound 0.003 µM, first compound 0.316 µM): 70.2%
- viability, T/C (second compound 0.003 µM, first compound 1 µM): 54.3%
- viability, T/C (second compound 0.003 µM, first compound 3.16 µM): 40.6%
- viability, T/C (second compound 0.003 µM, first compound 10 µM): 32.9%
- viability, T/C (second compound 0.00949 µM, first compound 0.0316 µM): 118%
- viability, T/C (second compound 0.00949 µM, first compound 0.1 µM): 94.4%
- viability, T/C (second compound 0.00949 µM, first compound 0.316 µM): 83.6%
- viability, T/C (second compound 0.00949 µM, first compound 1 µM): 48.2%
- viability, T/C (second compound 0.00949 µM, first compound 3.16 µM): 44.7%
- viability, T/C (second compound 0.00949 µM, first compound 10 µM): 30.6%
- viability, T/C (second compound 0.03 µM, first compound 0.0316 µM): 101%
- viability, T/C (second compound 0.03 µM, first compound 0.1 µM): 85.1%
- viability, T/C (second compound 0.03 µM, first compound 0.316 µM): 76.4%
- viability, T/C (second compound 0.03 µM, first compound 1 µM): 53.5%
- viability, T/C (second compound 0.03 µM, first compound 3.16 µM): 40.8%
- viability, T/C (second compound 0.03 µM, first compound 10 µM): 31.2%
- viability, T/C (second compound 0.0949 µM, first compound 0.0316 µM): 109%
- viability, T/C (second compound 0.0949 µM, first compound 0.1 µM): 81.7%
- viability, T/C (second compound 0.0949 µM, first compound 0.316 µM): 73.3%
- viability, T/C (second compound 0.0949 µM, first compound 1 µM): 47.3%
- viability, T/C (second compound 0.0949 µM, first compound 3.16 µM): 39.9%
- viability, T/C (second compound 0.0949 µM, first compound 10 µM): 36.5%
- viability, T/C (second compound 0.3 µM, first compound 0.0316 µM): 92%
- viability, T/C (second compound 0.3 µM, first compound 0.1 µM): 85.7%
- viability, T/C (second compound 0.3 µM, first compound 0.316 µM): 64.8%
- viability, T/C (second compound 0.3 µM, first compound 1 µM): 49.9%
- viability, T/C (second compound 0.3 µM, first compound 3.16 µM): 42.5%
- viability, T/C (second compound 0.3 µM, first compound 10 µM): 34.2%

Compound: CC(=O)OC12COC1CC(O)C1(C)C(=O)C(O)C3=C(C)C(OC(=O)C(O)C(NC(=O)OC(C)(C)C)c4ccccc4)CC(O)(C(OC(=O)c4ccccc4)C21)C3(C)C (stereo unspecified)
- viability, T/C (compound 0.0316 µM): 57.5% [middle of 4 runs]
- viability, T/C (compound 0.1 µM): 58.8% [middle of 4 runs]
- viability, T/C (compound 0.316 µM): 55.9% [middle of 4 runs]
- viability, T/C (compound 1 µM): 61.6% [middle of 4 runs]
- viability, T/C (compound 10 µM): 67.2% [middle of 4 runs]
